These results are taken from ChEMBL document CHEMBL5236635, “Structure-Based Drug Design and Synthesis of Novel N-Aryl-2,4-bithiazole-2-amine CYP1B1-Selective Inhibitors in Overcoming Taxol Resistance in A549 Cells” (J Med Chem, 2022).

The structures appear in SMILES notation. Activity calls are given as the source filed them. No cut-off for these calls is given here. A value given as a limit tells only on which side of the number the result lay.

In general, Ki refers to the equilibrium dissociation constant of an inhibitor or competing ligand from its target. A word on the IC50: it is the concentration needed to halve the response being measured.

The target in series [1] is T1, Cytochrome P450 1A1 (Homo sapiens, UniProt P04798).
T1 sequence (P04798 whole entry): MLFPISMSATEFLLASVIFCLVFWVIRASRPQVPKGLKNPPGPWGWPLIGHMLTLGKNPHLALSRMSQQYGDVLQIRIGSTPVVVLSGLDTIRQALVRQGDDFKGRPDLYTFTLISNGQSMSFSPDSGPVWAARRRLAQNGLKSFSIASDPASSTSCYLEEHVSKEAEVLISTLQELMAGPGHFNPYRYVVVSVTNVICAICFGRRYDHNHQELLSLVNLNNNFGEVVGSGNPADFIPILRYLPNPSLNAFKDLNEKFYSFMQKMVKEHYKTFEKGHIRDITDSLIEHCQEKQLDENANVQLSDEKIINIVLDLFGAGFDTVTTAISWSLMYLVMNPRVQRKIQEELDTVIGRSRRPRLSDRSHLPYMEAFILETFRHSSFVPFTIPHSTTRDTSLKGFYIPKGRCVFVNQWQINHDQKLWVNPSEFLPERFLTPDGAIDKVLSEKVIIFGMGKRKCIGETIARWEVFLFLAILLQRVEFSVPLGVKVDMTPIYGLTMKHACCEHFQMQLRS
The series is described as follows: Inhibition of CYP1A1 (unknown origin) assessed as inhibition constant. The format is ADME.

For series [2], the system named is A549. The series is described as follows: Antiproliferative activity against human A549 cells assessed as reduction in cell viability at 20 nM by MTT assay. Type of series: functional, cell-based. (Tetrazolium assays rely on reduction of a dye to a coloured formazan, in cell work by metabolically active cells.)
For series [3], the system named is A549. The experiment in a line: Antiproliferative activity against human A549 cells assessed as reduction in cell viability at 10 nM by MTT assay. The format is functional, cell-based.
In series [4] the test system is A549. The experiment in a line: Antiproliferative activity against human A549 cells assessed as reduction in cell viability at 20 nM in presence of DMBA by MTT assay. The format is functional, cell-based.
The test system of series [5] is A549. The experiment in a line: Inhibition of DMBA induced taxol resistance in human A549 cells. Type of series: functional, cell-based. To be noted: dose 2.5-10 µM.
Series [6] deals with T2, Cytochrome P450 1A2 (Homo sapiens, UniProt P05177).
T2 sequence (P05177 whole entry): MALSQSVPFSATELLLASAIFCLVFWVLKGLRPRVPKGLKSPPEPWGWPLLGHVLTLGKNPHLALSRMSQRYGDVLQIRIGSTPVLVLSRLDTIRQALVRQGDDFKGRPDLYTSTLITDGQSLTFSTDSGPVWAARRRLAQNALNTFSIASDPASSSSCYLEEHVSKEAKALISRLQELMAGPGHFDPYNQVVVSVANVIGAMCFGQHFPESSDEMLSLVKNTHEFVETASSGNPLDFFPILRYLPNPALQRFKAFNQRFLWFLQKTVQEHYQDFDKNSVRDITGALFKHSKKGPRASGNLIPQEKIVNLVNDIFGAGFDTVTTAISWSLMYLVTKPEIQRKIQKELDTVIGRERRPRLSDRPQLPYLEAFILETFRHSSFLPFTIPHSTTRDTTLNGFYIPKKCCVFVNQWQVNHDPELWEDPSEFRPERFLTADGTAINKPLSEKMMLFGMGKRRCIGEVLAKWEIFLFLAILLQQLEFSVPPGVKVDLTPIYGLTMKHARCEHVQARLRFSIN
The series is described as follows: Inhibition of recombinant human CYP1A2 using 7-ethyl-0-resorufin as substrate incubated for 30 mins in presence of NADPH by EROD assay.

The next series deals with CYP1A1 versus CYP1B1. The series is described as follows: Selectivity index, ratio of IC50 for inhibition of recombinant human CYP1A1 to IC50 for inhibition of recombinant human CYP1B1. The note with it: recombinant human CYP1A1 and recombinant human CYP1B1.
Series [7] concerns the target T1, Cytochrome P450 1A1. The experiment in a line: Inhibition of recombinant human CYP1A1 using 7-ethyl-0-resorufin as substrate incubated for 30 mins in presence of NADPH by EROD assay.
Series [8] deals with T3, Cytochrome P450 1B1 (Homo sapiens, UniProt Q16678).
T3 sequence (Q16678 whole entry): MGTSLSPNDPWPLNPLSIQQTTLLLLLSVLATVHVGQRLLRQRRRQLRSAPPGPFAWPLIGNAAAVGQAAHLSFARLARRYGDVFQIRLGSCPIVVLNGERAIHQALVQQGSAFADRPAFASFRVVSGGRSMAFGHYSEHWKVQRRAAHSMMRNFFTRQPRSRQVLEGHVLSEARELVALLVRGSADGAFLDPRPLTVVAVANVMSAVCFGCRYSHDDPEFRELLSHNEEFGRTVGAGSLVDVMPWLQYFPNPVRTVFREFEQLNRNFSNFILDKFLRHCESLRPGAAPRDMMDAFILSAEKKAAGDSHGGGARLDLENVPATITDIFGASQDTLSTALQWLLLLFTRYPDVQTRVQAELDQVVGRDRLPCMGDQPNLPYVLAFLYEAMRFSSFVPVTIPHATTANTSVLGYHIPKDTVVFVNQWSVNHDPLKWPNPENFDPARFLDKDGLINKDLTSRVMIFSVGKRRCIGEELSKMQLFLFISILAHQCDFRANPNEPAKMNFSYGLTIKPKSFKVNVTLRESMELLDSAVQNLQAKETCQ
The experiment in a line: Inhibition of recombinant human CYP1B1 using 7-ethyl-0-resorufin as substrate incubated for 30 mins in presence of NADPH by EROD assay.

A further series relates to A549/TR. The series is described as follows: Reversal of taxol resistance in human A549/Taxol cells assessed as increase in Rho123 accumulation at 5 uM incubated for 20 mins by multimode plate reader analysis. Type of series: functional, cell-based.
The target in series [9] is T2, Cytochrome P450 1A2. The experiment in a line: Inhibition of CYP1A2 (unknown origin). The format is ADME.
For series [10], the target named is T3, Cytochrome P450 1B1. The experiment in a line: Inhibition of CYP1B1 (unknown origin). The format is ADME.
The target of series [11] is T1, Cytochrome P450 1A1. The experiment in a line: Inhibition of CYP1A1 (unknown origin). Type of series: ADME.
Series [12] deals with T3, Cytochrome P450 1B1. The series is described as follows: Inhibition of human CYP1B1. Type of series: ADME.

Consider `CCC/C(C=C(C)C)=C\COc1c2occc2c(C)c2ccc(=O)oc12`, for which the Ki at Cytochrome P450 1A1 [1] is 7.17 µM.

`CC(=O)O[C@H]1C(=O)[C@@]2(C)[C@H]([C@H](OC(=O)c3ccccc3)[C@]3(O)C[C@H](OC(=O)[C@H](O)[C@@H](NC(=O)c4ccccc4)c4ccccc4)C(C)=C1C3(C)C)[C@]1(OC(C)=O)CO[C@@H]1C[C@@H]2O`: the result in the series on A549 [2] and in the series with A549 [3] was Active. The result in the series on A549 [4] was inactive.

As to `Fc1ccccc1-c1csc(-c2csc(Nc3cc(Cl)cc(Cl)c3)n2)n1`, the inhibition entry in the series on A549 [5] is “Dose-Dependent Effect”.

Consider `Clc1ccccc1-c1csc(-c2csc(Nc3ccc(N4CCOCC4)cc3)n2)n1`, for which the values for the IC50 on Cytochrome P450 1A2 [6], at Cytochrome P450 1A1 [7] and at Cytochrome P450 1B1 [8] were over 10 µM, 46.6 nM and 8.67 nM, respectively. The inhibition entry in the series on A549 [5] is “Dose-Dependent Effect”. Moreover, in the series with CYP1A1 versus CYP1B1, the selectivity ratio was 5.37.

For the molecule `COc1ccc(CCN(C)CCCC(C#N)(c2ccc(OC)c(OC)c2)C(C)C)cc1OC` (stereo not given), in the series with A549/TR, the outcome was Active.

As to `Nc1ccc2[nH]c3c(c2c1)CCn1c-3nc2ccccc2c1=O`, the concentration for half-maximal inhibition (IC50) amounted to 2580 nM against Cytochrome P450 1A2 [9], 90 nM against Cytochrome P450 1B1 [10] and 2580 nM against Cytochrome P450 1A1 [11].

With `Cc1cc(O)c2c(c1)C(=O)c1cc(O)cc(O)c1C2=O` [EMODIN], the half-maximal inhibitory concentration (IC50) against Cytochrome P450 1B1 [12] was determined as 3.73 µM.
